Data: ChEMBL document CHEMBL4813952, “Axial Chiral Binaphthoquinone and Perylenequinones from the Stromata of Hypocrella bambusae Are SARS-CoV-2 Entry Inhibitors” (J Nat Prod, 2021)
Active and inactive are the calls of the source. The rule behind the calls is not given here.

Tests used:
[1] = biological target: Spike glycoprotein (Severe acute respiratory syndrome coronavirus 2) (UniProt P0DTC2); assay: Inhibition of spike glycoprotein S in SARS-CoV-2 pseudovirus infected in human 293T/ACE2 cells assessed as inhibition of viral infection; type: cell-based
[2] = Cytotoxicity against human 293T/ACE2 cells measured after 48 hrs by CCK8 assay; type: cell-based
SARS-CoV-2 [3] = assay: Antiviral activity against SARS-CoV-2 Wuhan-HU-1 infection on African green monkey Vero E6 cells assessed by drecrease in viral nucleocapsid N-protein expression measured after 48 hrs by DAPI staining based immunofluorescence microscopy; type: functional, organism-based; settings: Severe acute respiratory syndrome coronavirus 2, dose 0.08-2.2 µM
SARS-CoV-2 [4] = assay: Antiviral activity against SARS-CoV-2 Wuhan-HU-1 infected in African green monkey Vero E6 cells assessed as inhibition of viral infection when cells were preincubated for 1 hr followed by viral infection measured after 24 hrs by qPCR analysis; type: functional, organism-based; settings: Severe acute respiratory syndrome coronavirus 2, Wuhan-HU-1, Vero C1008
[5] = biological target: Spike glycoprotein (Severe acute respiratory syndrome coronavirus 2) (UniProt P0DTC2); assay: Inhibition of SARS-CoV-2 spike glycoprotein S expressed in human HEK293T cells cotransfected with pAAV-IRES-GFP assessed as inhibition of membrane fusion to African green monkey Vero E6 cells causing suppression of syncytium formation at 2 uM preincubated for 30 mins measured after 24 hrs by cell-cell fusion based fluorescence microscopy; settings: time 24.5 hrs
Vero C1008 = assay: Cytotoxicity against African Green monkey Vero E6 cells at 10 uM measured after 24 to 48 hrs by CCK8 assay; type: cell-based; settings: chlorocebus sabaeus, vero c1008, 10 µM, time 24-48 hrs
Spike glycoprotein = Spike glycoprotein (Severe acute respiratory syndrome coronavirus 2, UniProt P0DTC2); assay: Binding affinity to SARS-CoV-2 spike glycoprotein S RBD at 25 degreeC by surface plasmon resonance assay
SARS-CoV-2 [6] = assay: Antiviral activity against SARS-CoV-2 Wuhan-HU-1 infection on African green monkey Vero E6 cells assessed by drecrease in viral nucleocapsid N-protein expression at 20 uM measured after 48 hrs by DAPI staining based immunofluorescence microscopy; type: functional, organism-based; settings: Severe acute respiratory syndrome coronavirus 2

Row | SMILES | inhibition [1] | CC50 at 48 h [2] | Activity (SARS-CoV-2 [3]) | EC50 (SARS-CoV-2 [4]) | inhibition [5] | Activity (Vero C1008) | Kd (Spike glycoprotein) | Activity (SARS-CoV-2 [6])
1 | COC1=CC(=O)c2c(O)c(OC)c3c(c2C1=O)-c1c(c(OC)c(O)c2c1C(=O)C(OC)=CC2O)C[C@](C)(O)[C@@H]3C(C)=O (stereo not given in full) | inactive | > 10000 nM | – | – | – | – | – | –
2 | COc1c2c3c4c(c(OC)c(=O)c5c(O)cc(OC)c(c6c(OC)ccc(c1=O)c63)c54)CC(C)=C2C(C)=O | inactive | > 10000 nM | – | – | – | – | – | –
3 | COc1c2c3c4c(c(OC)c(=O)c5c(O)cc(OC)c(c6c(OC)cc(O)c(c1=O)c63)c54)[C@@H](C(C)=O)[C@@](C)(O)C2 [HYPOCRELLIN A] | inactive | 2000 nM | Dose-Dependent Effect | 220 nM | inactive | Non-Toxic | 37.9 nM | –
4 | COC1=C(CC(C)=O)C(=O)c2c(c(O)cc(OC)c2-c2c(OC)cc(O)c3c2C(=O)C(CC(C)=O)=C(OC)C3=O)C1=O | inactive | > 10000 nM | – | – | – | – | – | inactive
5 | COC1=C2c3c4c5c(c(O)cc(OC)c5c5c(OC)cc(O)c(c35)C1=O)C(=O)[C@@H](OC)[C@@]41C[C@](C)(O)[C@@H]2[C@@]1(C)O | inactive | > 10000 nM | – | – | – | – | – | –
6 | COC1=C2c3c4c5c(c(O)cc(OC)c5c5c(OC)cc(O)c(c35)C1=O)C(=O)[C@@H](OC)[C@@]41C[C@](C)(O)[C@@H]2[C@]1(C)O | inactive | > 10000 nM | – | – | – | – | – | –
7 | COc1c(O)c2c(=O)cc(OC)c3c4c(OC)cc(=O)c5c(O)c(OC)c6c(c(c1C[C@](C)(O)[C@H]6C(C)=O)c23)c54 | inactive | 2500 nM | Dose-Dependent Effect | 210 nM | inactive | Non-Toxic | 22.8 nM | –
